Non-standard residues stand in square brackets, D forms with d. Residues, ends and D or L forms follow the SMILES beside them. NMeW = CN[C@@H](Cc1c[nH]c2ccccc12)C(=O)O; NMeI = CC[C@H](C)[C@H](NC)C(=O)O; NMeV = CN[C@H](C(=O)O)C(C)C; NMeA = CN[C@@H](C)C(=O)O A value given as a limit tells only on which side of the number the result lay.

One assay addresses Sushi domains (SD1/2) protein. Briefly: Fluorescence polarization (FP) competition assay with AJAP-1probe, calculated Ki. It is filed as binding. As to conditions: Table 9, Ala-, D-amino acids and N-methylation scans of PIANPWT; read-out: Ki (nM) mean ± SEM. Put shortly:
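Ki values were derived from IC50s (sigmoidal fits, ≥ triplicate), with probe Kd obtained by saturation titration of SD1/2. Peptides displaced a 25 nM TAMRA-labelled probe; polarization read at 530/580 nm in 1% BSA-containing PBS, pH 7.4, room temperature.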
As for `CC[C@H](C)[C@H](NC(=O)[C@H](C)NC(=O)[C@H](Cc1c[nH]c2ccccc12)N(C)C(=O)[C@@H]1CCCN1C(C)=O)C(=O)N[C@H](C(=O)N[C@@H](Cc1c[nH]c2ccccc12)C(=O)NCC(=O)N1CCC[C@H]1C(=O)N[C@H](C(=O)N[C@H](C(=O)N[C@@H](CO)C(=O)N[C@@H](CCCNC(=N)N)C(=O)N[C@@H](CCC(=O)O)C(=O)N[C@@H](CC(=O)O)C(N)=O)C(C)C)[C@@H](C)O)C(C)C` [P(N-Me-W)AIVWGPTVSRED] (Ac-P[NMeW]AIVWGPTVSRED-NH2), the Ki was 833 ± 12 nM. As for `CC[C@H](C)[C@H](NC(=O)[C@H](C)NC(=O)[C@H](C)NC(=O)[C@@H]1CCCN1C(C)=O)C(=O)N[C@H](C(=O)N[C@@H](Cc1c[nH]c2ccccc12)C(=O)NCC(=O)N1CCC[C@H]1C(=O)N[C@H](C(=O)N[C@H](C(=O)N[C@@H](CO)C(=O)N[C@@H](CCCNC(=N)N)C(=O)N[C@@H](CCC(=O)O)C(=O)N[C@@H](CC(=O)O)C(N)=O)C(C)C)[C@@H](C)O)C(C)C` [PAAIVWGPTVSRED] (Ac-PAAIVWGPTVSRED-NH2), the Ki was 911 ± 13 nM. Still for that read-out and setting: as for `CC[C@H](C)[C@H](NC(=O)[C@H](C)N(C)C(=O)[C@H](Cc1c[nH]c2ccccc12)NC(=O)[C@@H]1CCCN1C(C)=O)C(=O)N[C@H](C(=O)N[C@@H](Cc1c[nH]c2ccccc12)C(=O)NCC(=O)N1CCC[C@H]1C(=O)N[C@H](C(=O)N[C@H](C(=O)N[C@@H](CO)C(=O)N[C@@H](CCCNC(=N)N)C(=O)N[C@@H](CCC(=O)O)C(=O)N[C@@H](CC(=O)O)C(N)=O)C(C)C)[C@@H](C)O)C(C)C` [PW(N-Me-A)IVWGPTVSRED] (Ac-PW[NMeA]IVWGPTVSRED-NH2), the figure is 7230 ± 130 nM; as for `CC[C@H](C)[C@@H](C(=O)N[C@H](C(=O)N[C@@H](Cc1c[nH]c2ccccc12)C(=O)NCC(=O)N1CCC[C@H]1C(=O)N[C@H](C(=O)N[C@H](C(=O)N[C@@H](CO)C(=O)N[C@@H](CCCNC(=N)N)C(=O)N[C@@H](CCC(=O)O)C(=O)N[C@@H](CC(=O)O)C(N)=O)C(C)C)[C@@H](C)O)C(C)C)N(C)C(=O)[C@H](C)NC(=O)[C@H](Cc1c[nH]c2ccccc12)NC(=O)[C@@H]1CCCN1C(C)=O` [PWA(N-Me-I)VWGPTVSRED] (Ac-PWA[NMeI]VWGPTVSRED-NH2), 370 ± 5 nM; as for `CC(=O)N1CCC[C@H]1C(=O)N[C@@H](Cc1c[nH]c2ccccc12)C(=O)N[C@@H](C)C(=O)N[C@@H](C)C(=O)N[C@H](C(=O)N[C@@H](Cc1c[nH]c2ccccc12)C(=O)NCC(=O)N1CCC[C@H]1C(=O)N[C@H](C(=O)N[C@H](C(=O)N[C@@H](CO)C(=O)N[C@@H](CCCNC(=N)N)C(=O)N[C@@H](CCC(=O)O)C(=O)N[C@@H](CC(=O)O)C(N)=O)C(C)C)[C@@H](C)O)C(C)C` [PWAAVWGPTVSRED] (Ac-PWAAVWGPTVSRED-NH2), 46600 ± 4840 nM. Same read-out and setting: as for `CC[C@H](C)[C@H](NC(=O)[C@H](C)NC(=O)[C@H](Cc1c[nH]c2ccccc12)NC(=O)[C@@H]1CCCN1C(C)=O)C(=O)N(C)[C@H](C(=O)N[C@@H](Cc1c[nH]c2ccccc12)C(=O)NCC(=O)N1CCC[C@H]1C(=O)N[C@H](C(=O)N[C@H](C(=O)N[C@@H](CO)C(=O)N[C@@H](CCCNC(=N)N)C(=O)N[C@@H](CCC(=O)O)C(=O)N[C@@H](CC(=O)O)C(N)=O)C(C)C)[C@@H](C)O)C(C)C` [PWAI(N-Me-V)WGPTVSRED] (Ac-PWAI[NMeV]WGPTVSRED-NH2), the figure is 7000 ± 100 nM; as for `CC[C@H](C)[C@H](NC(=O)[C@H](C)NC(=O)[C@H](Cc1c[nH]c2ccccc12)NC(=O)[C@@H]1CCCN1C(C)=O)C(=O)N[C@@H](C)C(=O)N[C@@H](Cc1c[nH]c2ccccc12)C(=O)NCC(=O)N1CCC[C@H]1C(=O)N[C@H](C(=O)N[C@H](C(=O)N[C@@H](CO)C(=O)N[C@@H](CCCNC(=N)N)C(=O)N[C@@H](CCC(=O)O)C(=O)N[C@@H](CC(=O)O)C(N)=O)C(C)C)[C@@H](C)O` [PWAIAWGPTVSRED], 1462 ± 14 nM; as for `CC[C@H](C)[C@H](NC(=O)[C@H](C)NC(=O)[C@H](Cc1c[nH]c2ccccc12)NC(=O)[C@@H]1CCCN1C(C)=O)C(=O)N[C@H](C(=O)N(C)[C@@H](Cc1c[nH]c2ccccc12)C(=O)NCC(=O)N1CCC[C@H]1C(=O)N[C@H](C(=O)N[C@H](C(=O)N[C@@H](CO)C(=O)N[C@@H](CCCNC(=N)N)C(=O)N[C@@H](CCC(=O)O)C(=O)N[C@@H](CC(=O)O)C(N)=O)C(C)C)[C@@H](C)O)C(C)C` [PWAIV(N-Me-W)GPTVSRED] (Ac-PWAIV[NMeW]GPTVSRED-NH2), 636 ± 6 nM.

Staying with this assay, now noted: Table 9, cells printed in μM; read-out: Ki (nM) mean ± SEM.
In the case of `CC[C@H](C)[C@H](NC(=O)[C@H](C)NC(=O)[C@H](Cc1c[nH]c2ccccc12)NC(=O)[C@@H]1CCCN1C(C)=O)C(=O)N[C@H](C(=O)N[C@@H](C)C(=O)NCC(=O)N1CCC[C@H]1C(=O)N[C@H](C(=O)N[C@H](C(=O)N[C@@H](CO)C(=O)N[C@@H](CCCNC(=N)N)C(=O)N[C@@H](CCC(=O)O)C(=O)N[C@@H](CC(=O)O)C(N)=O)C(C)C)[C@@H](C)O)C(C)C` [PWAIVAGPTVSRED] (Ac-PWAIVAGPTVSRED-NH2), the Ki was over 62500 nM.

Still in this assay, the particulars now being: Table 12, deep mutational scanning validation variants of PIANPWT; read-out: Ki (nM) mean ± SEM.
Regarding `CC[C@H](C)[C@H](NC(=O)[C@H](C)NC(=O)[C@H](CC(=O)O)NC(=O)[C@@H]1CCCN1C(C)=O)C(=O)N[C@H](C(=O)N[C@@H](Cc1c[nH]c2ccccc12)C(=O)NCC(=O)N1CCC[C@H]1C(=O)N[C@H](C(=O)N[C@H](C(=O)N[C@@H](CO)C(=O)N[C@@H](CCCNC(=N)N)C(=O)N[C@@H](CCC(=O)O)C(=O)N[C@@H](CC(=O)O)C(N)=O)C(C)C)[C@@H](C)O)C(C)C` [PDAIVWGPTVSRED] (Ac-PDAIVWGPTVSRED-NH2), the Ki is 673 ± 7 nM. As for `CC[C@H](C)[C@H](NC(=O)[C@H](C)NC(=O)[C@H](Cc1ccccc1)NC(=O)[C@@H]1CCCN1C(C)=O)C(=O)N[C@H](C(=O)N[C@@H](Cc1c[nH]c2ccccc12)C(=O)NCC(=O)N1CCC[C@H]1C(=O)N[C@H](C(=O)N[C@H](C(=O)N[C@@H](CO)C(=O)N[C@@H](CCCNC(=N)N)C(=O)N[C@@H](CCC(=O)O)C(=O)N[C@@H](CC(=O)O)C(N)=O)C(C)C)[C@@H](C)O)C(C)C` [PFAIVWGPTVSRED] (Ac-PFAIVWGPTVSRED-NH2), the Ki is 792 ± 11 nM.

Regarding `CC[C@H](C)[C@H](NC(=O)[C@H](C)NC(=O)[C@H](Cc1c[nH]cn1)NC(=O)[C@@H]1CCCN1C(C)=O)C(=O)N[C@H](C(=O)N[C@@H](Cc1c[nH]c2ccccc12)C(=O)NCC(=O)N1CCC[C@H]1C(=O)N[C@H](C(=O)N[C@H](C(=O)N[C@@H](CO)C(=O)N[C@@H](CCCNC(=N)N)C(=O)N[C@@H](CCC(=O)O)C(=O)N[C@@H](CC(=O)O)C(N)=O)C(C)C)[C@@H](C)O)C(C)C` [PHAIVWGPTVSRED] (Ac-PHAIVWGPTVSRED-NH2), the Ki is 1500 ± 50 nM. For the compound `CC[C@H](C)[C@H](NC(=O)[C@H](C)NC(=O)[C@H](CO)NC(=O)[C@@H]1CCCN1C(C)=O)C(=O)N[C@H](C(=O)N[C@@H](Cc1c[nH]c2ccccc12)C(=O)NCC(=O)N1CCC[C@H]1C(=O)N[C@H](C(=O)N[C@H](C(=O)N[C@@H](CO)C(=O)N[C@@H](CCCNC(=N)N)C(=O)N[C@@H](CCC(=O)O)C(=O)N[C@@H](CC(=O)O)C(N)=O)C(C)C)[C@@H](C)O)C(C)C` [PSAIVWGPTVSRED] (Ac-PSAIVWGPTVSRED-NH2), the Ki was 906 ± 20 nM. `CC[C@H](C)[C@H](NC(=O)[C@H](C)NC(=O)[C@H](Cc1c[nH]c2ccccc12)NC(=O)[C@@H]1CCCN1C(C)=O)C(=O)N[C@@H](CC(=O)O)C(=O)N[C@@H](Cc1c[nH]c2ccccc12)C(=O)NCC(=O)N1CCC[C@H]1C(=O)N[C@H](C(=O)N[C@H](C(=O)N[C@@H](CO)C(=O)N[C@@H](CCCNC(=N)N)C(=O)N[C@@H](CCC(=O)O)C(=O)N[C@@H](CC(=O)O)C(N)=O)C(C)C)[C@@H](C)O` [PWAIDWGPTVSRED] (Ac-PWAIDWGPTVSRED-NH2): the Ki was 1300 ± 16 nM.

For orientation: Ki means the dissociation constant of the complex between target and ligand, obtained from inhibition or displacement.

Values taken from US20260193293A1, “PEPTIDES CAPABLE OF INHIBITING PROTEIN-PROTEIN INTERACTIONS AT GABAB1A SUBUNIT AND USES THEREOF” (UNIVERSITY OF COPENHAGEN, priority 2022, published 2026).
